Data reported in patent publication US8173638B2 (Boehringer Ingelheim International GmbH, priority 2006, dated 2012).

Molecular target: T1, human CB2R (Homo sapiens, UniProt P34972)
T1 construct: host or cells: CHO cells
Experiment: CB2R mediated modulation of cAMP synthesis
Assay type: cell-based
Conditions: found through the use of the described assays (CB2 agonists); qualitative statement
Procedure, shortened: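 Forskolin (10 uM)-driven cAMP in human CB2R-expressing CHO cells, read with DiscoverX-XS kit after 30 min compound exposure at 37 °C, 1 mM IBMX, 0.25% BSA. 100% defined as forskolin cAMP relative to 1 uM CP55940 inhibition. Agonist EC50 via four-parameter logistic model.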

T1 sequence (P34972 whole entry): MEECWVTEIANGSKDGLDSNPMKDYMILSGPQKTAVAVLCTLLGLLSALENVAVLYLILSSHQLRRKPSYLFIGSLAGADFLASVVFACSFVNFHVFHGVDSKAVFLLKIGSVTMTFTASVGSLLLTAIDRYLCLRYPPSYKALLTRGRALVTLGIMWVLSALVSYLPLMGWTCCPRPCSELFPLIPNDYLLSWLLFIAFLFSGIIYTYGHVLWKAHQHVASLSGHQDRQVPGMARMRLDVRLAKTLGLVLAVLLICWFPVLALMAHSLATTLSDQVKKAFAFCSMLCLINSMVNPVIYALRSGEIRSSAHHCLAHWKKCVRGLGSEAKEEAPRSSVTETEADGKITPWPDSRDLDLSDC

| SMILES | agonistic activity |
| --- | --- |
| CC(C)(C)c1ccc(NC(=O)N2CCCN(C(=O)c3ccc(C#N)cc3)CC2)cc1 [4-(4-Cyano-benzoyl)-[1,4]diazepane-1-carboxylic acid (4-tert-butyl-phenyl)-amide] | agonistic activity |
| O=C(Nc1ccc(C(F)(F)F)cc1)N1CCCN(C(=O)c2ccc(F)cc2)CC1 [4-(4-Fluoro-benzoyl)-[1,4]diazepane-1-carboxylic acid (4-trifluoromethyl-phenyl)-amide] | agonistic activity |
| O=C(Nc1nc(-c2ccccc2)cs1)N1CCCN(C(=O)C2CCC(O)CC2)CC1 (centres unmarked) [4-(4-Hydroxy-cyclohexanecarbonyl)-[1,4]diazepane-1-carboxylic acid (4-phenyl-thiazol-2-yl)-amide] | agonistic activity |
| CC(C)(C)c1cnc(NC(=O)N2CCCN(C(=O)C3CCC(O)CC3)CC2)s1 (centres unmarked) [4-(4-Hydroxy-cyclohexanecarbonyl)-[1,4]diazepane-1-carboxylic acid (5-tert-butyl-thiazol-2-yl)-amide] | agonistic activity |
| CC(C)(C)c1cc(NC(=O)N2CCCN(C(=O)N3CCN(S(C)(=O)=O)CC3)CC2)no1 [4-(4-Methanesulfonyl-piperazine-1-carbonyl)-[1,4]diazepane-1-carboxylic acid (5-tert-butyl-isoxazol-3-yl)-amide] | agonistic activity |
| CC(C)(C)c1cc(NC(=O)N2CCCN(C(=O)N3CCC(S(C)(=O)=O)CC3)CC2)no1 [4-(4-Methanesulfonyl-piperidine-1-carbonyl)-[1,4]diazepane-1-carboxylic acid (5-tert-butyl-isoxazol-3-yl)-amide] | agonistic activity |
| COC1CCC(C(=O)N2CCCN(C(=O)Nc3cc(C(C)(C)C)on3)CC2)CC1 (centres unmarked) [4-(4-Methoxy-cyclohexanecarbonyl)-[1,4]diazepane-1-carboxylic acid (5-tert-butyl-isoxazol-3-yl)-amide] | agonistic activity |
| COC1CCN(C(=O)N2CCCN(C(=O)Nc3cc(C(C)(C)C)no3)CC2)CC1 [4-(4-Methoxy-piperidine-1-carbonyl)-[1,4]diazepane-1-carboxylic acid (3-tert-butyl-isoxazol-5-yl)-amide] | agonistic activity |
| CCCCc1ccc(NC(=O)N2CCCN(C(=O)CCC(C)C)CC2)cc1 [4-(4-Methyl-pentanoyl)-[1,4]diazepane-1-carboxylic acid (4-butyl-phenyl)-amide] | agonistic activity |
| CC(C)CCC(=O)N1CCCN(C(=O)Nc2ccc3ccccc3c2)CC1 [4-(4-Methyl-pentanoyl)-[1,4]diazepane-1-carboxylic acid naphthalen-2-ylamide] | agonistic activity |
| CC(C)(C)c1cc(NC(=O)N2CCCN(C(=O)C3CCC(=O)CC3)CC2)no1 [4-(4-Oxo-cyclohexanecarbonyl)-[1,4]diazepane-1-carboxylic acid (5-tert-butyl-isoxazol-3-yl)-amide] | agonistic activity |
| CC(C)(C)c1cc(NC(=O)N2CCCN(C(=O)c3ccc(C(F)(F)F)cc3)CC2)no1 [4-(4-Trifluoromethyl-benzoyl)-[1,4]diazepane-1-carboxylic acid (5-tert-butyl-isoxazol-3-yl)-amide] | agonistic activity |
| O=C(Nc1ccc2ccccc2c1)N1CCCN(C(=O)c2ccc(C(F)(F)F)cc2)CC1 [4-(4-Trifluoromethyl-benzoyl)-[1,4]diazepane-1-carboxylic acid naphthalen-2-ylamide] | agonistic activity |
| O=C(Nc1cc(-c2ccccc2)no1)N1CCCN(C(=O)N2CCOCC2)CC1 [4-(Morpholine-4-carbonyl)-[1,4]diazepane-1-carboxylic acid (3-phenyl-isoxazol-5-yl)-amide] | agonistic activity |
| CCC(C)c1cc(NC(=O)N2CCCN(C(=O)N3CCOCC3)CC2)on1 (centres unmarked) [4-(Morpholine-4-carbonyl)-[1,4]diazepane-1-carboxylic acid (3-sec-butyl-isoxazol-5-yl)-amide] | agonistic activity |
| CC(C)(C)c1cc(NC(=O)N2CCCN(C(=O)N3CCCCC3)CC2)no1 [4-(Piperidine-1-carbonyl)-[1,4]diazepane-1-carboxylic acid (5-tert-butyl-isoxazol-3-yl)-amide] | agonistic activity |
| CC(C)(C)c1cc(NC(=O)N2CCCN(C(=O)C3CCCNC3)CC2)no1 (centres unmarked) [4-(Piperidine-3-carbonyl)-[1,4]diazepane-1-carboxylic acid (5-tert-butyl-isoxazol-3-yl)-amide] | agonistic activity |
| CC(C)(C)c1cc(NC(=O)N2CCCN(C(=O)C3CCNCC3)CC2)no1 [4-(Piperidine-4-carbonyl)-[1,4]diazepane-1-carboxylic acid (5-tert-butyl-isoxazol-3-yl)-amide] | agonistic activity |
| CC(C)(C)c1cc(NC(=O)N2CCCN(C(=O)C3CCCO3)CC2)no1 (centres unmarked) [4-(Tetrahydro-furan-2-carbonyl)-[1,4]diazepane-1-carboxylic acid (5-tert-butyl-isoxazol-3-yl)-amide] | agonistic activity |
| CC(C)(C)c1cc(NC(=O)N2CCCN(C(=O)C3CCOC3)CC2)no1 (centres unmarked) [4-(Tetrahydro-furan-3-carbonyl)-[1,4]diazepane-1-carboxylic acid (5-tert-butyl-isoxazol-3-yl)-amide] | agonistic activity |
| CC(C)(C)c1cc(NC(=O)N2CCCN(C(=O)C3CCCCO3)CC2)no1 (centres unmarked) [4-(Tetrahydro-pyran-2-carbonyl)-[1,4]diazepane-1-carboxylic acid (5-tert-butyl-isoxazol-3-yl)-amide] | agonistic activity |
| CC(C)(C)c1cc(NC(=O)N2CCCN(C(=O)C3CCCOC3)CC2)no1 (centres unmarked) [4-(Tetrahydro-pyran-3-carbonyl)-[1,4]diazepane-1-carboxylic acid (5-tert-butyl-isoxazol-3-yl)-amide] | agonistic activity |

Results, then the compound that gave them:

| agonistic activity | SMILES |
| --- | --- |
| agonistic activity | O=C(Nc1ccc2ccccc2c1)N1CCCN(C(=O)c2ccc(Cl)cc2)CC1 [4-(4-Chloro-benzoyl)-[1,4]diazepane-1-carboxylic acid naphthalen-2-ylamide] |
| agonistic activity | N#Cc1ccc(C(=O)N2CCCN(C(=O)Nc3ccc4ccccc4c3)CC2)cc1 [4-(4-Cyano-benzoyl)-[1,4]diazepane-1-carboxylic acid naphthalen-2-ylamide] |
| agonistic activity | CN(C)c1ccc(C(=O)N2CCCN(C(=O)Nc3ccc4ccccc4c3)CC2)cc1 [4-(4-Dimethylamino-benzoyl)-[1,4]diazepane-1-carboxylic acid naphthalen-2-ylamide] |
| agonistic activity | CC1(O)CCC(C(=O)N2CCCN(C(=O)Nc3cc(C(C)(C)C)on3)CC2)CC1 (centres unmarked) [4-(4-Hydroxy-4-methyl-cyclohexanecarbonyl)-[1,4]diazepane-1-carboxylic acid (5-tert-butyl-isoxazol-3-yl)-amide] |
| agonistic activity | CC(C)(C)c1cc(NC(=O)N2CCCN(C(=O)C3CCC(NS(C)(=O)=O)CC3)CC2)no1 (centres unmarked) [4-(4-Methanesulfonylamino-cyclohexanecarbonyl)-[1,4]diazepane-1-carboxylic acid (5-tert-butyl-isoxazol-3-yl)-amide] |
| agonistic activity | COc1ccc(C(=O)N2CCCN(C(=O)Nc3ccc4ccccc4c3)CC2)cc1 [4-(4-Methoxy-benzoyl)-[1,4]diazepane-1-carboxylic acid naphthalen-2-ylamide] |
| agonistic activity | Cc1ccc(C(=O)N2CCCN(C(=O)Nc3ccc(C(C)(C)C)cc3)CC2)cc1 [4-(4-Methyl-benzoyl)-[1,4]diazepane-1-carboxylic acid (4-tert-butyl-phenyl)-amide] |
| agonistic activity | Cc1ccc(C(=O)N2CCCN(C(=O)Nc3ccc4ccccc4c3)CC2)cc1 [4-(4-Methyl-benzoyl)-[1,4]diazepane-1-carboxylic acid naphthalen-2-ylamide] |
| agonistic activity | CC(C)CCC(=O)N1CCCN(C(=O)Nc2ccc(C(C)C)cc2)CC1 [4-(4-Methyl-pentanoyl)-[1,4]diazepane-1-carboxylic acid (4-isopropyl-phenyl)-amide] |
| agonistic activity | C[C@@H]1CN(C(=O)N2CCCN(C(=O)Nc3cc(C(C)(C)C)on3)CC2)C[C@H](C)O1 [4-((2R,6S)-2,6-Dimethyl-morpholine-4-carbonyl)-[1,4]diazepane-1-carboxylic acid (5-tert-butyl-isoxazol-3-yl)-amide] |
| agonistic activity | CC(C)(C)c1cc(NC(=O)N2CCCN(C(=O)N3CCOCC3)CC2)on1 [4-(Morpholine-4-carbonyl)-[1,4]diazepane-1-carboxylic acid (3-tert-butyl-isoxazol-5-yl)-amide] |
| agonistic activity | O=C(Nc1nc(-c2ccccc2)cs1)N1CCCN(C(=O)N2CCOCC2)CC1 [4-(Morpholine-4-carbonyl)-[1,4]diazepane-1-carboxylic acid (4-phenyl-thiazol-2-yl)-amide] |
| agonistic activity | CCC(C)c1ccc(NC(=O)N2CCCN(C(=O)N3CCOCC3)CC2)cc1 (centres unmarked) [4-(Morpholine-4-carbonyl)-[1,4]diazepane-1-carboxylic acid (4-sec-butyl-phenyl)-amide] |
| agonistic activity | CC(C)c1ccc(NC(=O)N2CCCN(C(=O)c3ccccn3)CC2)cc1 [4-(Pyridine-2-carbonyl)-[1,4]diazepane-1-carboxylic acid (4-isopropyl-phenyl)-amide] |
| agonistic activity | CCC(C)c1ccc(NC(=O)N2CCCN(C(=O)c3ccccn3)CC2)cc1 (centres unmarked) [4-(Pyridine-2-carbonyl)-[1,4]diazepane-1-carboxylic acid (4-sec-butyl-phenyl)-amide] |
| agonistic activity | CC(C)c1ccc(NC(=O)N2CCCN(C(=O)c3ccncc3)CC2)cc1 [4-(Pyridine-4-carbonyl)-[1,4]diazepane-1-carboxylic acid (4-isopropyl-phenyl)-amide] |
